Assay results reported in paper PMC10064330, “Reversible Dual-Covalent Molecular Locking of the 14-3-3/ERRγ Protein–Protein Interaction as a Molecular Glue Drug Discovery Approach” (Journal of the American Chemical Society, 2023).

Target: T1, 14-3-3γ/ERRγ complex (Homo sapiens, UniProt P61981+P62508)
T1 construct: made in house; host or cells: E. coli NiCo21 (DE3)
Experiment: Time-dependent intact MS in competitive mixture of nine client phosphopeptides
Assay type: biochemical
Source text: 14-3-3 proteins interact with many phosphorylated proteins, with differing affinities and cellular concentrations.[44],[49],[50] On the cellular level, there is a large reservoir of 14-3-3, typically in vast excess to its binding partners. Notwithstanding, we were interested in developing a testable model for the effect of the molecular locking on a PPI network. To investigate the intricacies of selective stabilization of the 14-3-3/ERRγ interaction in a complex matrix, we performed time-dependent intact MS experiments in a competitive environment of excess of 14-3-3 client phosphopeptides. A mixture of 14-3-3 (1 eq.), molecular lock 5 (10 eq.), ΕRRγ (2 eq.), and eight additional client phosphopeptides (8 × 2 eq.) was incubated, and incremental samples were taken, quenched with sodium cyanoborohydride, and measured (Figure 5). […] The peptide panel contained four higher-affinity and three lower-affinity 14-3-3 binding clients, relative to ERRγ, (Figure 5b) and contained +1 Cys-containing peptides RND3 and PKR.
Figure S23a. QTOF-MS analysis of 14-3-3/peptide mix/5. […] Calculated mass 14-3-3γ apo:
31542.8 Da. Calculated mass covalently crosslinked 14-3-3γ/ERRγ/5 complex: 33019.5 Da. […]
Different Scanning Fluorimetry (DSF) assays were performed using 40 µL samples containing 5 µM 14-3-3γ, 50 µM ERRγ pS179 9-mer peptide, 200 µM compound (or 1% DMSO) and 5x ProteoOrange (Lumiprobe, 5000x stock in DMSO) in 10 mM Hepes, 150 mM NaCl, 50 µM TCEP (pH 8.0). […] Fluorescence intensity was determined using excitation 470/40 nm and emission 570/20 nm filters. Based on these melting curves, the negative derivative melting curve is obtained from which the melting temperature Tm was determined. ΔTm values represent the differences in melting temperature relative to the DMSO control. All described melting temperatures are based on three independent experiments from which the average and standard deviations were determined using excel. […]

T1 sequence (P61981 whole entry, other chains not shown): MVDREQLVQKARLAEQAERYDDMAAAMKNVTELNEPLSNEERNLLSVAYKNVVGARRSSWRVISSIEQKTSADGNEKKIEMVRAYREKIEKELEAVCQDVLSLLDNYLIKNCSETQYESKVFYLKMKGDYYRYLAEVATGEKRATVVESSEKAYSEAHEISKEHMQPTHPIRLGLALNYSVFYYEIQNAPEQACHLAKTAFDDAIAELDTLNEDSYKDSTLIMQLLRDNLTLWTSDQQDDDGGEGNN

**Q.** With CN(C)CCSSCCN(C)C(=O)c1ccc(C=O)c(F)c1 [compound 5] as the molecule, how does the “maximum crosslinking efficiency (14-3-3γ/ERRγ/5 complex formation)” value (14-3-3γ 5 μM, ERRγ 10 μM, 5 50 μM, eight additional phosphopeptides 10 μM each) read?
**A.** Its value is 35%.

**Q.** And the “increase in total number of 14-3-3/ERRγ complexes in solution” value (intact MS 35% vs modeled 2.4% ERRγ bound)?
**A.** The value was 15 fold.

**Q.** What about the “reduction in crosslinking capacity, peptide mix vs ERRγ in isolation” value (peptide competitors relative to ERRγ 8:1) of the same molecule?
**A.** Its value is ~2 fold.
